# Reference: paper PMC12281485, “High-Throughput Screening of Potent Drug-like Molecules Targeting 17β-HSD10 for the Treatment of Alzheimer’s Disease and Cancer” (ACS Chemical Biology, 2025)
# Read-outs that look alike come from different tables or passages of the source. Marks after values point to notes of the source that are not given here.
# Key:
# [1] = Mouse hepatocyte metabolic stability; assay type: in vitro ADME; design: k (elimination constant): unit not given here; settings: mouse hepatocytes; for Heps category: metabolism category; for Cl (clearance): limits of quantitation 0.5 and 50; for half-life: read-out: T1/2 (half-life)
# Experimental: (§1) Hepatocyte isolation, hepatocyte incubations for metabolic stability, plasma protein binding (PPB) experiments, and LC/MS sample analysis were carried out as previously described in Brandon et al. and MacLeod et al.
# XLfit (IDBS, UK) was used to calculate the exponential decay and the rate constant (k) from the ratio of the peak area of the test compound to the internal standard at each time point. […] Verapamil, 7-ethoxycoumarin, 7-hydroxycoumarin, and phthalazine were used as positive controls to confirm acceptable assay performance. […] Values were transferred to RStudio v1.3.1093 (Posit, Boston, MA, USA) for generation of scatter plots and heatmaps using the ggplot2 package (Wickham 2016).
# 17β-HSD10 [2] = target: T1, 17β-HSD10 (Homo sapiens, UniProt Q99714); design: method as in Kissinger et al.; settings: Table 5, ref Kissinger et al.; cited from earlier work
# T1 construct: Recombinant 17β-HSD10 was expressed and purified as previously described in Aitken et al; made in house
# T1 sequence (Q99714 1-261): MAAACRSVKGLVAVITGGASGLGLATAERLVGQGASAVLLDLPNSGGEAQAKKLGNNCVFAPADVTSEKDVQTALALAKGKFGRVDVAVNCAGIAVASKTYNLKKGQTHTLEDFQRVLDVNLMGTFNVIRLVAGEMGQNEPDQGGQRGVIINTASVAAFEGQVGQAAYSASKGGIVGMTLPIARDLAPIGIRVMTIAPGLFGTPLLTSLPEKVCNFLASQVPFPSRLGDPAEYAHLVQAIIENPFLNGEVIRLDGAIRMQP
# 17β-HSD10 [3] = target: T1, 17β-HSD10; assay: 17β-HSD10 enzyme inhibition dose-response assay (acetoacetyl-CoA/NADH, absorbance 340 nm); assay type: biochemical
# Experimental: Recombinant 17β-HSD10 was expressed and purified as previously described in Aitken et al.
# 17β-HSD10 screening was carried out as described in Aitken et al. with the exception that experiments were also conducted in clear-bottom 1536-well low-volume microplates (Corning) with a final assay volume of 20 μL. For primary screening, an endpoint assay format was adopted, in which an Echo acoustic liquid dispenser (Labcyte) was used to transfer 20 nL of either DMSO control […] or test compounds (10 μM) to the assay plate. 10 μL of the 17β-HSD10 enzyme in an assay buffer (2.5 nM) was then added to the plates using the Preddator liquid handling robot (Redd and Whyte), and plates were incubated at RT for 15 min. 10 μL of the substrate mixture (100 μM acetoacetyl-CoA and 100 μM NADH) was added with the Preddator. To start the reaction, the plates were left to incubate for 35 min at RT before the absorbance at 340 nm was read on the EnVision plate reader (PerkinElmer). For the kinetic assay format and dose-response follow-up experiments, the same protocol was adopted, except that the absorbance at 340 nm was monitored constantly for 45 min from immediately after the reaction was started.
# 17β-HSD10 [4] = target: T1, 17β-HSD10; assay: Acetoacetyl-CoA and NADH enzyme kinetics (mode of inhibition); assay type: biochemical; settings: for mode of inhibition with respect to acetoacetyl-CoA (AcAc): AcAc diluted from 1000 μM, 100 μM NADH; for mode of inhibition with respect to NADH: AcAc in excess at 800 μM, NADH diluted from 150 μM
# Experimental: To determine the mode of inhibition, a matrix titration was used to calculate the kinetic parameters for acetoacetyl-CoA and NADH and the effect of 17β-HSD10 concentration upon reaction rate. Previously determined conditions as described in Aitken et al. were used. Data collected from the experiment were analyzed by plotting reaction progress curves to calculate the initial velocities, Vmax, and Km values using the Michaelis–Menten equation (XLFit, ID Business Solutions). Hanes Woolf plots were used to determine the mechanism of inhibition. Two compounds, ESC1002033 and ESC1002082, representative of the two unique clusters, were investigated for their mechanism of action against the substrates, NADH (Supplementary C, Figure S2) and AcetoAcetyl-CoA (AcAc) (Supplementary C, Figure S3). Both ESC1002033 and ESC1002082 inhibitors were tested as a 12-point serial dilution series with a maximal concentration of 2.5 μM. […] When investigating the effect of AcAc, it was diluted from 1000 μM with an excess of 100 μM NADH. Both inhibitors appear to have a similar mechanism of action. For NADH, with increasing concentration of the inhibitor, there is a decrease in Vmax (Figure SC1B) with no change in Km (Figure SC1C), which is characteristic of non-competitive (mixed) inhibition. This is also reflected by the convergence of the data to the left of the y axis on the Lineweaver–Burke plot (Figure SC1D). In contrast, with AcAc present, there was an increase in Kmapp with increasing inhibitor concentrations (Figure SC2C), which is characteristic of competitive inhibition. […] However, the data in Figure SC2D have been fitted for substrate inhibition (Y = V max × X/(Km + X × (1 + X/K i))), and the diagnostic Lineweaver–Burke plot also supports the conclusion that inhibition is competitive with AcAc (Figure SC2D).
# [5] = system: HEK293 cells overexpressing 17β-HSD10; assay: LDH cytotoxicity assay; assay type: cell-based, human; settings: 50 μM compound, 24 h, n = 3 ± SD
# Experimental: Cell cytotoxicity was assessed via the measurement of LDH leakage into the culture medium using a commercially available kit from Pierce (Thermo Scientific cat no. 88953). This was carried out in accordance with the kit guidelines, with the activity of LDH being calculated from the change in absorbance at […]. Human embryonic kidney (HEK293) cells overexpressing 17β-HSD10 were cultured in phenol-red free media (10% FBS, 1 mM sodium pyruvate, 100 units penicillin, 0.1 mg mL^–1 streptomycin, and 2 mM L-glutamine) and seeded at a density of 10,000 cells per well (100 μL, 96-well plates). […] Treated cells were then incubated at 37 °C and CO2 (5%) for 24 h before the LDH assay was performed as per the manufacturer’s instructions. Spontaneous control (water) and maximum control (lysis buffer) were used in accordance with the kit guide. Absorbance was measured at 490 and 680 nm using the SpectraMaxM2e spectrophotometer. The measured LDH activity was used to calculate %cytotoxicity using the following equation (eq ): %cytotoxicity=(compoundtreatedLDHactivity−spontaneousLDHactivity)/(maximumLDHactivity−spontaneousLDHactivity)×100 1
# [6] = system: HEK293 cells overexpressing 17β-HSD10; assay: Alamar Blue cell viability assay; assay type: cell-based, human; settings: 50 μM compound, 24 h, n = 3 ± SD
# Experimental: (§2) Cell viability was assessed via fluorescence change using the commercially available Alamar Blue from ThermoFisher. HEK293 cells overexpressing 17β-HSD10 were cultured in phenol-red free media (10% FBS, 1 mM sodium pyruvate, 100 units penicillin, 0.1 mg mL^–1 streptomycin, and 2 mM L-glutamine) and seeded at a density of 10,000 cells per well (100 μL, 96-well plates). […] Treated cells were then incubated at 37 °C and CO2 (5%) for 24 h before the assay was performed as per the manufacturer’s instructions. Fluorescence was measured at 530 nm excitation and 590 nm emission using the SpectraMaxM2e spectrophotometer.
# 17β-HSD10 [7] = target: T1, 17β-HSD10; assay: (−)-CHANA fluorescence assay of cellular 17β-HSD10 activity; assay type: cell-based; settings: read-out: cellular 17β-HSD10 activity mean pEC50 (converted)
# Experimental: (−)–CHANA ((−)-cyclohexenyl amino naphthalene alcohol) is a fluorogenic probe that can be used to detect 17β-HSD10 activity in living cells. HEK293 17β-HSD10 cells were seeded at a density of 10,000 cells per well (100 μL, 96-well black plates) in phenol-red free media (10% FBS, 1 mM sodium pyruvate, 100 units penicillin, 0.1 mg mL^–1 streptomycin, and 2 mM L-glutamine). […] The fluorogenic probe (−)–CHANA was then added to each well to give a final assay concentration of 20 μM. Fluorescence was immediately measured using the FLUOstar Optima microplate reader (excitation = 380 nm, emission = 520 nm, orbital averaging = 3 mm), and the initial reaction was monitored for 3–4 h. EC50 was calculated from the control-subtracted triplicates using nonlinear regression (four parameters) of GraphPad Prism 5 software. The Final EC50 and SEM values were obtained as a mean of at least three independent measurements.
# [8] = Alamar Blue cell viability assay; assay type: cell-based, human; settings: human, HEK293 cells overexpressing 17β-HSD10, 50 μM compound, n = 3 ± SD, read-out: Alamar Blue % viability (50 μM dose)
# Experimental: as §2
# [9] = Mouse plasma protein binding; assay type: in vitro ADME; settings: read-out: mouse PPB (% free)
# Experimental: as §1
# [10] = Table 2, chemically modified cluster hit compounds, read-out: 17β-HSD10 pIC50 (converted)
# [11] = Table 5, read-out: mean 17β-HSD10 pIC50 (converted)
# [12] = Table 4, 17β-HSD10 overexpressing HEK293 cells, CHANA fluorescence assay
# [13] = Table 3, chemically modified singleton hit compound series, read-out: 17β-HSD10 pIC50 (converted)
# [14] = Table 5, HEK293 17β-HSD10 cells, CHANA assay
k (elimination constant) [1],Heps category [1],Cl (clearance) [1] [mL/min/g liver],half-life [1] [min],EC50 (17β-HSD10 [7]; [12]) [nM],EC50 (17β-HSD10 [7]; [14]) [nM],Structure (SMILES),LDH % toxicity (50 μM dose) [5] [%],Alamar Blue % viability (50 μM dose) [6] [%],also measured
0.11,High,>50,,,,"O=C(C(c1ccccc1)n1cnc2[nH]ncc2c1=S)N1CCCCCC1 (centres unmarked) [AG18051, reference compound]",,,T1/2 (half-life) [1]: 6.6 min; mean 17β-HSD10 pIC50 (17β-HSD10 [2]): 7.04 ^b
0.013,mod,6.2,53.8,,,CC(C)CN(C(=O)c1ccccc1F)c1cccc(N(C)Cc2cnc[nH]2)c1 [ESC1002033],,,IC50 (17β-HSD10 [3]; [10]): 200 nM; IC50 (17β-HSD10 [3]; [11]): 200 nM; mode of inhibition with respect to acetoacetyl-CoA (AcAc) (17β-HSD10 [4]): competitively; mode of inhibition with respect to NADH (17β-HSD10 [4]): non-competitively
,,,,,,COc1ccc(-c2ccccc2C2CCCN2C(=O)c2sccc2C)cn1 (centres unmarked) [ESC1002082],,,"LipE (17β-HSD10 [3]): 1.45; LipE (17β-HSD10 [3]; Table 1, lipophilic efficiency): 1.45; mode of inhibition with respect to acetoacetyl-CoA (AcAc) (17β-HSD10 [4]): competitively; mode of inhibition with respect to NADH (17β-HSD10 [4]): non-competitively"
,,,,1130,,COc1ccc(-c2ccccc2[C@H]2CCCN2C(=O)c2sccc2C)cn1 [ESC1002162],6.84 ± 0.02,78.79 ± 0.91,"17β-HSD10 pIC50 (17β-HSD10 [3]; Supplementary B, Table S1 and text, enantiomers): 6.31"
,,,,2460,,Cc1ncc(CN(C)c2cccc(N(CC(C)C)C(=O)c3ccccc3F)c2)[nH]1 [ESC1002203],6.64 ± 0.03,82.98 ± 1.25,fold less potent than ESC1002033 (17β-HSD10 [3]; relative to ESC1002033): approximately 3 fold
,,,,671,,COc1cccc(-c2ccccc2C2CCCN2C(=O)c2sccc2C)c1 (centres unmarked) [ESC1002421],5.16 ± 0.01,102.63 ± 1.32,IC50 (17β-HSD10 [3]; [13]): 186 nM
0.018,high,8.6,38.5,141,141,CC(C)CN(C(=O)c1c(F)cccc1F)c1cccc(N(C)Cc2c[nH]cn2)c1 [ESC1002456],4.78 ± 0.01,,"IC50 (17β-HSD10 [3]; [10]): 138 nM; IC50 (17β-HSD10 [3]; [11]): 138 nM; viability at 24 h, 50 μM [8]: 79.2 ± 1.21%; fraction unbound [9]: 0.089"
0.012,mod,5.8,57.2,367,367,Cc1ccc(C(=O)N(CC(C)C)c2cccc(N(C)Cc3c[nH]cn3)c2)c(F)c1 [ESC1002575],4.78 ± 0.02,,"IC50 (17β-HSD10 [3]; [10]): 269 nM; IC50 (17β-HSD10 [3]; [11]): 269 nM; viability at 24 h, 50 μM [8]: 92.57 ± 0.47%; fraction unbound [9]: 0.076"
0.02,Mod,7.2,,511,511,Cc1ccsc1C(=O)N(CC(C)C)c1cccc(N(C)Cc2c[nH]cn2)c1 [ESC1002597],4.98 ± 0.04,78.78 ± 1.72,mean 17β-HSD10 pIC50 (17β-HSD10 [3]; Table 5): 6.4; T1/2 (half-life) [1]: 46.2 min
,,,,232,,O=C(c1sccc1Cl)N1CCCC1c1ccccc1-c1ccc(F)c(O)c1 (centres unmarked) [ESC1002838],5.58 ± 0.03,94.28 ± 1.31,IC50 (17β-HSD10 [3]; [13]): 51.3 nM
0.17,high,>50,4,40,40,O=C(c1sccc1Cl)N1CCC[C@H]1c1ccccc1-c1cc(O)ccc1F [ESC1002842],5.90 ± 0.004,,"IC50 (17β-HSD10 [3]; [13]): 40.7 nM; viability at 24 h, 50 μM [8]: 82.44 ± 0.32%; fraction unbound [9]: 0.034"
